According to article PMC7998748, “A Unique Acylated Flavonol Glycoside from Prunus persica (L.) var. Florida Prince: A New Solid Lipid Nanoparticle Cosmeceutical Formulation for Skincare” (Antioxidants, 2021):

Tests used:
ABTS assay = assay: ABTS assay
Excerpt: (§1) The DPPH assay was peformed using the method of Yardpiroon et al., Vitamin C was used as a positive control. The ABTS assay followed the method of Re et al., [40], Vitamin C was used as a standard. The β-carotene bleaching assay used the method described by Soulef et al., [14] in the presence of the positive control BHT. The value for each test sample was presented as the inhibition curve at 50% or IC50.

DPPH assay = assay: DPPH assay
Excerpt: as §1

[1] = MTT cytotoxicity in human keratinocytes; assay type: cell-based; conditions: human keratinocytes cell line, 1 mg/mL, read-out: cell viability (cells survived)
Procedure: (§2) The human keratinocytes cell line was obtained from VACSERA CO. (The Egyptian Company for the Production of Vaccines, Sera, and Drugs, Giza, Egypt). The MTT assay was done for PPEE and PPEE-SLNs according to the method of Mostafa et al..
(§3) The MTT assay was used to test whether PPEE, PPEE-SLNs, and KDPAG could affect cell viability using human keratinocytes. Different concentrations of PPEE, PPEE-SLNs, extract-free-SLNs and KDPAG at 0.0625– 1mg/mL were incubated over 24 h with a human keratinocytes cell line (Figure 2). […] However, after treatment with 1 mg/mL of PPEE, PPEE-SLNS, Extract-free-SLNs, and KDPAG over 24 h, a significant reduction in cell viability of human keratinocytes was observed, 93%, 90%, 95%, and 89% of the cells survived, respectively. Thus, concentrations of PPEE, PPEE-SLNs, and KDPAG equal to or lower than 0.5 mg/mL were used for subsequent studies.

[2] = tested on: human keratinocytes cell line; assay: MTT cytotoxicity in human keratinocytes; assay type: cell-based; conditions: 0.0625–0.5 mg/mL, 24 h
Procedure: as §2, §3

[3] = β-carotene bleaching assay; conditions: after 30 min
Excerpt: as §1

[4] = target: collagenase type 1 from Clostridium histolyticum (Hathewaya histolytica (Clostridium histolyticum), UniProt Q46085); assay: biochemical; conditions: read-out: Anti-Collagenase % Inhibition
Chain of collagenase type 1 from Clostridium histolyticum (Q46085 41-1021 limits assumed): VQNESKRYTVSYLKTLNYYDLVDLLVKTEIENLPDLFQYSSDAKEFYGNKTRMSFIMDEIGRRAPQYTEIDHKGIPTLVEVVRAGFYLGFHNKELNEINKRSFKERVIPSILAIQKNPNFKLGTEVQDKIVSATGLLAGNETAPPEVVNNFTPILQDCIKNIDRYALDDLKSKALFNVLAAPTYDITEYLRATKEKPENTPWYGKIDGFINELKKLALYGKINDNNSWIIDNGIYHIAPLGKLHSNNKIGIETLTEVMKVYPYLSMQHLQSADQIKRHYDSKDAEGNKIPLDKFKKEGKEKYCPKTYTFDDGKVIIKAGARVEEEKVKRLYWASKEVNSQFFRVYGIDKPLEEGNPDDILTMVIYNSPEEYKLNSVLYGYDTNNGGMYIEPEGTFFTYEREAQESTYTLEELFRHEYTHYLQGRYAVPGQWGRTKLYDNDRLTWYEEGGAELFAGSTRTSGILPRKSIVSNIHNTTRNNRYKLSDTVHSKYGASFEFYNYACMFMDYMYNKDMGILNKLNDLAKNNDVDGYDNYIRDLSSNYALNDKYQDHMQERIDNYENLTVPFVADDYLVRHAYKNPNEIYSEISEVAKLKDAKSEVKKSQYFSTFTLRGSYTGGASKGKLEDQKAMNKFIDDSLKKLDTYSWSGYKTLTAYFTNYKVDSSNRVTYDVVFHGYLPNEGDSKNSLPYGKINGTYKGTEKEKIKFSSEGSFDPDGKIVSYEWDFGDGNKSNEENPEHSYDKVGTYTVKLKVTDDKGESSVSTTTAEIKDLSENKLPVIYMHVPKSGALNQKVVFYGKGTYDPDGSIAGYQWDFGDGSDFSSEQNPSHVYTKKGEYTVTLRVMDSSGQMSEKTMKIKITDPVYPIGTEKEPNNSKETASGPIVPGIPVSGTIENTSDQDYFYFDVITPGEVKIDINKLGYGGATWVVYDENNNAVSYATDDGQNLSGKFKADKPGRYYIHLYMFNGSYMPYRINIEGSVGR

mushroom tyrosinase = mushroom tyrosinase (Agaricus bisporus, UniProt C7FF04); assay: Anti-tyrosinase assay; assay type: biochemical; conditions: 300 μg/mL tested samples; positive control kojic acid (methods: 1.4 mg/mL)
Chain of mushroom tyrosinase (G1K3P4 entry or part of it): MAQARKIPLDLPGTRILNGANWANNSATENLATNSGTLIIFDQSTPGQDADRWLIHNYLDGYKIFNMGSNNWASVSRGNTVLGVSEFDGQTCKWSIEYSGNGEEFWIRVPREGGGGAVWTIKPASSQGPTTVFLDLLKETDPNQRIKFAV
Chain of mushroom tyrosinase (C7FF04 1-392): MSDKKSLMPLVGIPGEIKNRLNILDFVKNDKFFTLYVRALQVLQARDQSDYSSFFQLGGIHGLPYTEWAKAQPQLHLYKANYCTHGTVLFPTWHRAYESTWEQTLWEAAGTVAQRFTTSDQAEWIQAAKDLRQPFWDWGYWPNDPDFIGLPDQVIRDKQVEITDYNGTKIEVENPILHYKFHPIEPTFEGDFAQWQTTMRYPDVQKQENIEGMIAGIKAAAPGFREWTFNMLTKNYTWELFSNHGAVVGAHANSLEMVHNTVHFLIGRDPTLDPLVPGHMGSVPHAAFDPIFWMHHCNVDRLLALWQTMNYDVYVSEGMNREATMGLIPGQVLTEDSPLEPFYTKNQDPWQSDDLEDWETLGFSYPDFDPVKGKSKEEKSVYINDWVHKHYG
Procedure: For the anti-tyrosinase assay, 5600 units/mL of mushroom tyrosinase was incubated with each of the tested extracts or 1.4 mg/mL kojic acid (standard inhibitor) for 15 min at 37 °C before adding 1 mM L-DOPA as a substrate. The absorbance of the formed dopachrome was measured at 475 nm. The tested samples were used in a concentration range of 75–500 µg/mL.

human leukocyte elastase = target: T1, human leukocyte elastase (Homo sapiens, UniProt P08246); assay: Anti-elastase assay; assay type: biochemical
T1 sequence (P08246 30-267): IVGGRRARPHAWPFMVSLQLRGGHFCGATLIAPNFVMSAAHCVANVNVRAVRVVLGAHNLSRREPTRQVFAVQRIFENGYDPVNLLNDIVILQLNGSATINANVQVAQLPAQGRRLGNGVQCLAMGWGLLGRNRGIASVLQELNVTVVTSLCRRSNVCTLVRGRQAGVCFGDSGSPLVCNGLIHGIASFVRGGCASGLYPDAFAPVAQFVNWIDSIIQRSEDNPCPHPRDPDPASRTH
Procedure: The anti-aging and skin whitening activities were assessed following the methods reported by Mostafa et al.. For the anti-elastase assay, 1 μg/mL of human leukocyte elastase was incubated with HEPES buffer pH 7.5 and each of the tested extracts or 1.4 mg/mL N-Methoxysuccinyl-Ala-Ala-Pro-chloromethyl ketone (standard inhibitor) in a 96-well plate for 20 min at room temperature before the addition of 100 μL of 1 mM N-Methoxysuccinyl-Ala-Ala-Pro-Val-p-nitroanilide as a substrate. After 40 min incubation the absorbance was measured at 405 nm with a well devoid of extract/inhibitor serving as a blank. The tested samples were used in a concentration range of 25–300 µg/mL.

| Structure (SMILES) | ABTS IC50 (ABTS assay) | DPPH IC50 (DPPH assay) | viability at 24 h, 1 mg/mL [1] | reduction in cell viability [2] | β-carotene assay IC50 [3] | inhibition at 1400 µg/mL [4] | inhibition at 300 µg/mL (mushroom tyrosinase) | inhibition at 1400 µg/mL (human leukocyte elastase; 300 μg/mL tested samples, positive control N-(Methoxysuccinyl)-Ala-Ala-Pro-Val-chloromethyl ketone (methods: 1.4 mg/mL)) | IC50 (human leukocyte elastase; positive control N-(Methoxysuccinyl)-Ala-Ala-Pro-Val-chloromethyl ketone) |
| --- | --- | --- | --- | --- | --- | --- | --- | --- | --- |
| O=C(Cc1ccc(O)c(O)c1)OC[C@H]1O[C@@H](Oc2c(-c3ccc(O)cc3)oc3cc(O)cc(O)c3c2=O)[C@H](O)[C@@H](O)[C@@H]1O [KDPAG, kaempferol 3-O-β-^4C1-(6″-O-3,4-dihydroxyphenylacetyl glucopyranoside)] | 3.91 ± 1.43 µg/mL | 6.35 ± 3.40 µg/mL | 89% | no observed significant reduction | 1.73 ± 0.05 µg/mL | 91.1 ± 2.45% | 85.7 ± 2.1% | 89.2 ± 1.26% | 83.2 µM |
| Cc1cc(C(C)(C)C)c(O)c(C(C)(C)C)c1 [BHT, reference compound] |  |  |  |  | 8.06 ± 0.67 µg/mL |  |  |  |  |
| O=C1O[C@H]([C@@H](O)CO)C(O)=C1O [vitamin C, reference compound] | 0.96 ± 0.02 µg/mL | 2 ± 0.01 µg/mL |  |  |  |  |  |  |  |
